System: not listed separately
Assay: Encapsulation efficiency (% EE) of lipid nanoparticles
Assay type: physicochemical
Conditions: Table 2a; nanoparticles comprising the lipid
Protocol: For nanoparticle compositions including an RNA, a QUANT-IT™ RIBOGREEN® RNA assay (Invitrogen Corporation Carlsbad, CA) can be used to evaluate the encapsulation of an RNA by the nanoparticle composition. The samples are diluted to a concentration of approximately 5 μg/mL in a TE buffer solution (10 mM Tris-HCl, 1 mM EDTA, pH 7.5). 50 μL of the diluted samples are transferred to a polystyrene 96 well plate and either 50 μL of TE buffer or 50 μL of a 2% Triton X-100 solution is added to the wells. The plate is incubated at a temperature of 37° C. for 15 minutes. The RIBOGREEN® reagent is diluted 1:100 in TE buffer, and 100 μL of this solution is added to each well. The fluorescence intensity can be measured using a fluorescence plate reader (Wallac Victor 1420 Multilablel Counter; Perkin Elmer, Waltham, MA) at an excitation wavelength of, for example, about 480 nm and an emission wavelength of, for example, about 520 nm. The fluorescence values of the reagent blank are subtracted from that of each of the samples and the percentage of free RNA is determined by dividing the fluorescence intensity of the intact sample (without addition of Triton X-100) by the fluorescence value of the disrupted sample (caused by the addition of Triton X-100).
The efficiency of encapsulation of a therapeutic and/or prophylactic describes the amount of therapeutic and/or prophylactic that is encapsulated or otherwise associated with a lipid nanoparticle (e.g., an empty LNP or a loaded LNP) after preparation, relative to the initial amount provided. The encapsulation efficiency is desired to be high (e.g., close to 100%). The encapsulation efficiency may be measured, for example, by comparing the amount of therapeutic and/or prophylactic in a solution containing a loaded LNP before and after breaking up the loaded LNP with one or more organic solvents or detergents. Fluorescence may be used to measure the amount of free therapeutic and/or prophylactic (e.g., RNA) in a solution. For the loaded LNPs formulated with lipids of the disclosure, the encapsulation efficiency of a therapeutic and/or prophylactic is at least 50%, for example 50%, 55%, 60%, 65%, 70%, 75%, 80%, 85%, 90%, 91%, 92%, 93%, 94%, 95%, 96%, 97%, 98%, 99%, or 100%. In some embodiments, the encapsulation efficiency is at least 80%. In some embodiments, the encapsulation efficiency is at least 90%. In some embodiments, the encapsulation efficiency of the therapeutic and/or prophylactic agent is between 80% and 100%.
(§1) Lipid nanoparticles (e.g., empty LNPs or loaded LNPs) including DSPC as a phospholipid, cholesterol as a structural lipid, PL-II (e.g., PEG-1) as a PEG lipid, and a lipid according to Formula (I-1), (I), (I-A), (I-A1), (I-A2), (I-A3), or (I-A4) were prepared. In some embodiments, the lipid nanoparticles further included rhodamine-DOPE as a fluorescent lipid. Tables 2a, 2b, and 3 summarize the characteristics of the formulations.

Row | % EE [%] | SMILES
1 | 89.4 | CCCCCCCCC(CCCCCCCC)OC(=O)CCCCCCCN(CCCCCCCC(=O)OCCC(CCCC)CCCC)CCCNS(=O)(=O)CCOC [Compound 3]
2 | 93.4 | CCCCCCCCC(CCCCCCCC)OC(=O)CCCCCCCN(CCCCCCCC(=O)OCCC(CCCC)CCCC)CCCNS(=O)(=O)CC [Compound 5]

Same assay, conditions: Table 3; nanoparticles comprising the lipid

Row | % EE [%] | SMILES
3 | 95.6 | CCCCCCCCC(CCCCCCCC)OC(=O)CCCCCCCN(CCCCCCCC(=O)OCCC(CCCC)CCCC)CCCNS(=O)(=O)CCOC [Compound 3]
4 | 96.0 | CCCCCCCCC(CCCCCCCC)OC(=O)CCCCCCCN(CCCCCCCC(=O)OCCC(CCCC)CCCC)CCCNS(=O)(=O)CC [Compound 5]

System: CD-1 mice
Assay: Expression of hEPO induced by LNPs (mRNA encoding hEPO) administered to mice
Assay type: in vivo
Conditions: Table 4a, serum, 6 h after intravenous injection
Protocol: In some embodiments, hEPO concentrations were determined using an […] (ELLA) Simple Plex Assay (ProteinSimple) with a Human Erythroprotein cartridge. Standards for this assay are calibrated according to the 2. IRP WHO preparation. Nanoparticle compositions including mRNA are useful in the evaluation of the efficacy and usefulness of various formulations for the delivery of therapeutic and/or prophylactics. Higher levels of protein expression induced by administration of a composition including an mRNA will be indicative of higher mRNA translation and/or nanoparticle composition mRNA delivery efficiencies. As the non-RNA components are not thought to affect translational machineries themselves, a higher level of protein expression is likely indicative of a higher efficiency of delivery of the therapeutic and/or prophylactic by a given nanoparticle composition relative to other nanoparticle compositions or the absence thereof.
To assess potency of expression of lipids of the disclosure, the protein expression (hEPO) following administration of a nanoparticle comprising a lipid of the disclosure (e.g., a loaded LNP) to mice was measured.
Lipid nanoparticles (LNPs) including DSPC as a phospholipid, cholesterol as a structural lipid, PL-II (e.g., PEG-1) as a PEG lipid, a lipid according to Formula (I-1), (I), (I-A), (I-A1), (I-A2), (I-A3), or (I-A4), and an mRNA encoding hEPO were intravenously administered to CD-1 mice. The concentration of hEPO in serum was tested at 6 h after injection.

Row | SMILES | Avg. hEPO Concentration (mIU/mL) ± Avg. SD [mIU/mL]
5 | CCCCCCCCC(CCCCCCCC)OC(=O)CCCCCCCN(CCCCCCCC(=O)OCCC(CCCC)CCCC)CCCNS(=O)(=O)CCOC [Compound 3] | 7.11E+06 ± 1.75E+05
6 | CCCCCCCCC(CCCCCCCC)OC(=O)CCCCCCCN(CCCCCCCC(=O)OCCC(CCCC)CCCC)CCCNS(=O)(=O)CC [Compound 5] | 1.04E+07 ± 2.49E+05

System: not listed separately
Assay: Apparent pKa of lipid nanoparticles
Assay type: physicochemical
Conditions: Table 2a; nanoparticles comprising the lipid

Row | Apparent pKa | SMILES
7 | 6.549 | CCCCCCCCC(CCCCCCCC)OC(=O)CCCCCCCN(CCCCCCCC(=O)OCCC(CCCC)CCCC)CCCNS(=O)(=O)CCOC [Compound 3]
8 | 6.536 | CCCCCCCCC(CCCCCCCC)OC(=O)CCCCCCCN(CCCCCCCC(=O)OCCC(CCCC)CCCC)CCCNS(=O)(=O)CC [Compound 5]

System: not listed separately
Assay: Particle size (diameter) and polydispersity index of lipid nanoparticles
Assay type: physicochemical
Conditions: Table 2a; nanoparticles comprising the lipid
Protocol: A Zetasizer Nano ZS (Malvern Instruments Ltd, Malvern, Worcestershire, UK) can be used to determine the particle size, the polydispersity index (PDI) and the zeta potential of the nanoparticle compositions in 1×PBS in determining particle size and 15 mM PBS in determining zeta potential.
Lipid nanoparticles (e.g., empty LNPs or loaded LNPs) may be characterized by a variety of methods. For example, microscopy (e.g., transmission electron microscopy or scanning electron microscopy) may be used to examine the morphology and size distribution of a nanoparticle composition. Dynamic light scattering or potentiometry (e.g., potentiometric titrations) may be used to measure zeta potentials. Dynamic light scattering may also be utilized to determine particle sizes. Instruments such as the Zetasizer Nano ZS (Malvern Instruments Ltd, Malvern, Worcestershire, UK) may also be used to measure multiple characteristics of a nanoparticle composition, such as particle size, polydispersity index, and zeta potential.
as §1

Row | PDI | SMILES
9 | 0.099 | CCCCCCCCC(CCCCCCCC)OC(=O)CCCCCCCN(CCCCCCCC(=O)OCCC(CCCC)CCCC)CCCNS(=O)(=O)CCOC [Compound 3]
10 | 0.073 | CCCCCCCCC(CCCCCCCC)OC(=O)CCCCCCCN(CCCCCCCC(=O)OCCC(CCCC)CCCC)CCCNS(=O)(=O)CC [Compound 5]

Same assay, conditions: Table 2a; nanoparticles comprising the lipid, DSPC, cholesterol, PEG lipid

Row | Diameter (nm) | SMILES
11 | 72.1 | CCCCCCCCC(CCCCCCCC)OC(=O)CCCCCCCN(CCCCCCCC(=O)OCCC(CCCC)CCCC)CCCNS(=O)(=O)CCOC [Compound 3]
12 | 67.2 | CCCCCCCCC(CCCCCCCC)OC(=O)CCCCCCCN(CCCCCCCC(=O)OCCC(CCCC)CCCC)CCCNS(=O)(=O)CC [Compound 5]

Same assay, conditions: Table 3; nanoparticles comprising the lipid

Row | Diameter (nm) | PDI | SMILES
13 | 80.9 | 0.139 | CCCCCCCCC(CCCCCCCC)OC(=O)CCCCCCCN(CCCCCCCC(=O)OCCC(CCCC)CCCC)CCCNS(=O)(=O)CCOC [Compound 3]
14 | 83.1 | 0.166 | CCCCCCCCC(CCCCCCCC)OC(=O)CCCCCCCN(CCCCCCCC(=O)OCCC(CCCC)CCCC)CCCNS(=O)(=O)CC [Compound 5]

System: not listed separately
Assay: Lipid nanoparticle surface hydrophobicity by Generalized Polarization by Laurdan (N-GP)
Assay type: physicochemical
Conditions: Table 2a; Laurdan; higher N-GP indicates a less polar surface
Source text: Surface hydrophobicity of nanoparticles of the disclosure can be measured by Generalized Polarization by Laurdan (GPL). In this method, Laurdan, a fluorescent aminonaphthalene ketone lipid, is post-inserted into the nanoparticle surface and the fluorescence spectrum of Laurdan is collected to determine the normalized Generalized Polarization (N-GP). In some embodiments, nanoparticles formulated with lipids of the disclosure have a surface hydrophobicity expressed as N-GP of between about 0.5 and about 1.5. For example, in some embodiments, nanoparticles formulated with lipids of the disclosure have a surface hydrophobicity expressed as N-GP of about 0.5, about 0.6, about 0.7, about 0.8, about 0.9, about 1.0, about 1.1, about 1.2, about 1.3, about 1.4, or about 1.5. In some embodiments, nanoparticles formulated with lipids of the disclosure have a surface hydrophobicity expressed as N-GP of about 1.0 or about 1.1.

Row | Lipid nanoparticle surface hydrophobicity (N-GP*) | SMILES
15 | 1.00 | CCCCCCCCC(CCCCCCCC)OC(=O)CCCCCCCN(CCCCCCCC(=O)OCCC(CCCC)CCCC)CCCNS(=O)(=O)CCOC [Compound 3]
16 | 1.02 | CCCCCCCCC(CCCCCCCC)OC(=O)CCCCCCCN(CCCCCCCC(=O)OCCC(CCCC)CCCC)CCCNS(=O)(=O)CC [Compound 5]

— patent publication US20240226026A1, “BRANCHED TAIL LIPID COMPOUNDS AND COMPOSITIONS FOR INTRACELLULAR DELIVERY OF THERAPEUTIC AGENTS” (ModernaTX, Inc., priority 2021, published 2024)
